# Data reported in publication PMC10127257, “Engineering mutually orthogonal PylRS/tRNA pairs for dual encoding of functional histidine analogues” (Protein Science : A Publication of the Protein Society, 2023).
# Biological target: T1, MaPylRS^IFGFF (Methanomethylophilus alvi, UniProt M9SC49, L125I/Y126F/M129G/V168F/Y206F)
# T1 construct: gene MMALV_11280; C-terminal 6-His tag; pET29, E. coli BL21(DE3), Ni-NTA
# Experiment: X-ray crystallography, […] Å
# Format: binding
# Details: MgCl2, pH 8; three Mg2+ ions; triethylene glycol in the amino acid pocket
# T1 sequence (M9SC49 entry or part of it L125I/Y126F/M129G/V168F/Y206F): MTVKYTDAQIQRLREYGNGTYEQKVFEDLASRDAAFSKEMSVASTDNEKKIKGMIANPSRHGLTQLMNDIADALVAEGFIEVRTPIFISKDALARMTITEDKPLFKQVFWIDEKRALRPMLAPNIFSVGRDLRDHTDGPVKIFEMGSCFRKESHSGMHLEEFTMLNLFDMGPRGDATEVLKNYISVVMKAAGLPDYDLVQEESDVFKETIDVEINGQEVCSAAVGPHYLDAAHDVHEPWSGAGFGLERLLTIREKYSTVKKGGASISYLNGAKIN
compound,measurement,value
Nc1ncnc2c1ncn2[C@@H]1O[C@H](COP(=O)(O)OP(=O)(O)NP(=O)(O)O)[C@@H](O)[C@H]1O [AMP-PNP],"X-ray crystallography, 1.8 Å","bound to the nonreactive ATP analogue adenylyl‐imidodiphosphate (AMP‐PNP, PDB: 8C49"
